Laboratory results taken from ChEMBL document CHEMBL2069250, “Indole-2-carboxamides as allosteric modulators of the cannabinoid CB₁ receptor” (J Med Chem, 2012).

How the values were obtained:
Assay type in all cases: cell-based
Cannabinoid receptor 2 [1] = target: T1, Cannabinoid receptor 2 (Homo sapiens, UniProt P34972); test: Allosteric modulation of human recombinant CB2 receptor expressed in HEK293 cells assessed as inhibition of [3H]CP55940 binding at 10 uM
Cannabinoid receptor 1 [2] = target: T2, Cannabinoid receptor 1 (Homo sapiens, UniProt P21554); test: Allosteric modulation of human recombinant CB1 receptor expressed in HEK293 cells assessed as inhibition of [3H]CP55940 binding at 25 uM
T2 sequence (P21554 whole entry): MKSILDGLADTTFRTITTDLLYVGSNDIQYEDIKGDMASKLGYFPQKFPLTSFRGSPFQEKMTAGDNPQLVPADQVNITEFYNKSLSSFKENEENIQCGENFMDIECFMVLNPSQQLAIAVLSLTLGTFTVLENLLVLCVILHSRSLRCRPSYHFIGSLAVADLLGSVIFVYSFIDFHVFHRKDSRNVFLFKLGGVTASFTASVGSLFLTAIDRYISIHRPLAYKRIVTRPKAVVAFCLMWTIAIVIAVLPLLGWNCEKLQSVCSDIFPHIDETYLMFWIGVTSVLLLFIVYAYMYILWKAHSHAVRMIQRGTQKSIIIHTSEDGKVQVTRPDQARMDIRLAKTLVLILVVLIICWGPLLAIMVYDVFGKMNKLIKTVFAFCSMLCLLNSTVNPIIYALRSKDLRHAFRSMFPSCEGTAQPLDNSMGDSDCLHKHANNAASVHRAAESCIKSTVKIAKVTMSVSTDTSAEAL

Cannabinoid receptor 1 [3] = target: T2, Cannabinoid receptor 1; test: Allosteric modulation of human recombinant CB1 receptor expressed in HEK293 cells assessed as inhibition of [3H]CP55940 binding
Cannabinoid receptor 2 [4] = target: T1, Cannabinoid receptor 2; test: Allosteric modulation of human recombinant CB2 receptor expressed in HEK293 cells assessed as inhibition of [3H]CP55940 binding
Cannabinoid receptor 1 [5] = target: T2, Cannabinoid receptor 1; test: Allosteric modulation of human recombinant CB1 receptor expressed in HEK293 cells assessed as stimulation of [3H]CP55940 binding
Cannabinoid receptor 1 [6] = target: T2, Cannabinoid receptor 1; test: Allosteric modulation of human recombinant CB1 receptor expressed in HEK293 cells assessed as stimulation of [3H]CP55940 binding at 10 uM
Cannabinoid receptor 2 [7] = target: T1, Cannabinoid receptor 2; test: Allosteric modulation of human recombinant CB2 receptor expressed in HEK293 cells assessed as stimulation of [3H]CP55940 binding
Cannabinoid receptor 2 [8] = target: T1, Cannabinoid receptor 2; test: Allosteric modulation of human recombinant CB2 receptor expressed in HEK293 cells assessed as stimulation of [3H]CP55940 binding at 10 uM
Cannabinoid receptor 1 [9] = target: T2, Cannabinoid receptor 1; test: Allosteric modulation of human recombinant CB1 receptor expressed in HEK293 cells assessed as inhibitor of [3H]CP55940 binding at 10 uM

T1 sequence (P34972 whole entry): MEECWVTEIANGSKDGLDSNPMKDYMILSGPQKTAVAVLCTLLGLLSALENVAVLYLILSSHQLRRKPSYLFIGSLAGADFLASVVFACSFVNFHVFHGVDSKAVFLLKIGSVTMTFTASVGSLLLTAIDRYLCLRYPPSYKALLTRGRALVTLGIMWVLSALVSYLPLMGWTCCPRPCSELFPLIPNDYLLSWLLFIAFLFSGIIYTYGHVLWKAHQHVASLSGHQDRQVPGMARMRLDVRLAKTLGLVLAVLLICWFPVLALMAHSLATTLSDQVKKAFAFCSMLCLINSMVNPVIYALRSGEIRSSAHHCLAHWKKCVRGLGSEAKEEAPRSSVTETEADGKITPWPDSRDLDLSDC

| SMILES | inhibition (Cannabinoid receptor 2 [1]) [%] | IC50 (Cannabinoid receptor 2 [4]) [µM] | EC50 (Cannabinoid receptor 1 [5]) [µM] | Activity (Cannabinoid receptor 1 [6]) [%] | inhibition (Cannabinoid receptor 1 [2]) [%] | IC50 (Cannabinoid receptor 1 [3]) [µM] | EC50 (Cannabinoid receptor 2 [7]) [µM] | Activity (Cannabinoid receptor 2 [8]) [%] | inhibition (Cannabinoid receptor 1 [9]) [%] |
| --- | --- | --- | --- | --- | --- | --- | --- | --- | --- |
| CC(=O)c1c(C(=O)NCCc2ccc(N3CCCCC3)cc2)[nH]c2ccc(Cl)cc12 | 7.9 | > 10 |  |  | 19.9 | > 10 |  |  |  |
| O=C(NCCc1ccc(Cl)cc1)c1cc2cc(Cl)ccc2[nH]1 | 11.1 | > 10 | > 10 | 115 |  |  |  |  |  |
| Cc1c(C(=O)NCCc2ccc(N3CCCCC3)cc2)[nH]c2ccc(Cl)cc12 |  |  | 0.23 | 243 |  |  | > 10 | 111 |  |
| Nc1ccc(CCNC(=O)c2cc3cc(Cl)ccc3[nH]2)cc1 | 37.7 | > 10 |  |  |  | > 10 |  |  | 3.6 |
| CCc1c(C(=O)OCCc2ccc([N+](=O)[O-])cc2)[nH]c2ccc(Cl)cc12 | 16.8 | > 10 |  |  |  | > 10 |  |  | 24.7 |
| CCc1c(C(=O)NCCc2ccc(N)cc2)[nH]c2ccc(Cl)cc12 | 31.1 | > 10 | > 10 | 145 |  |  |  |  |  |
| O=C(NCCc1ccc(N2CCCCC2)cc1)c1cc2cc(Cl)ccc2[nH]1 | 37.9 | > 10 | 0.09 | 207 |  |  |  |  |  |
| O=C(NCCc1ccc([N+](=O)[O-])cc1)c1cc2cc(Cl)ccc2[nH]1 | 32.7 | > 10 | > 10 | 141 |  |  |  |  |  |
| CN(C)c1ccc(CCNC(=O)c2cc3cc(Cl)ccc3[nH]2)cc1 | 42.1 | > 10 | 1.53 | 171 |  |  |  |  |  |
| CNc1ccc(CCNC(=O)c2cc3cc(Cl)ccc3[nH]2)cc1 | 43.7 | > 10 |  |  |  | > 10 |  |  | 3.8 |
| CCc1c(C(=O)NCCc2ccc([N+](=O)[O-])cc2)[nH]c2ccc(Cl)cc12 | 0 | > 10 | 0.36 | 242 |  |  |  |  |  |
| CCc1c(C(=O)NCCc2ccc(N3CCCC3)cc2)[nH]c2ccc(Cl)cc12 |  |  | > 10 | 134 |  |  | > 10 | 135 |  |

Second part, led by results:

| inhibition (Cannabinoid receptor 2 [1]) [%] | IC50 (Cannabinoid receptor 2 [4]) [µM] | EC50 (Cannabinoid receptor 1 [5]) [µM] | Activity (Cannabinoid receptor 1 [6]) [%] | SMILES | inhibition (Cannabinoid receptor 1 [2]) [%] | IC50 (Cannabinoid receptor 1 [3]) [µM] | EC50 (Cannabinoid receptor 2 [7]) [µM] | Activity (Cannabinoid receptor 2 [8]) [%] | inhibition (Cannabinoid receptor 1 [9]) [%] |
| --- | --- | --- | --- | --- | --- | --- | --- | --- | --- |
| 22.8 | > 10 | 0.05 | 227 | CCc1c(C(=O)NCCc2ccc(N(C)C)cc2)[nH]c2ccc(Cl)cc12 |  |  |  |  |  |
| 33.1 | > 10 | 8.45 | 180 | CC(O)c1c(C(=O)NCCc2ccc(N3CCCCC3)cc2)[nH]c2ccc(Cl)cc12 (racemic) |  |  |  |  |  |
| 48.9 | > 10 | 0.76 | 179 | CCc1c(C(=O)NCCc2ccc(Cl)cc2)[nH]c2ccc(Cl)cc12 |  |  |  |  |  |
| 55.7 | 9.13 | 0.96 | 183 | CCc1c(C(=O)NCCc2ccc(NC)cc2)[nH]c2ccc(Cl)cc12 |  |  |  |  |  |
| 37.7 | > 10 | > 10 | 112 | CCc1c(C(=O)NCCc2ccc(F)cc2)[nH]c2ccc(Cl)cc12 |  |  |  |  |  |
| 65.7 | 5.57 |  |  | CCc1c(C(=O)OCCc2ccc(N(C)C)cc2)[nH]c2ccc(Cl)cc12 |  | > 10 |  |  | 19.6 |
| 20.6 | > 10 | 0.14 | 244 | CCc1c(C(=O)NCCc2ccc(N3CCCCC3)cc2)[nH]c2ccc(Cl)cc12 |  |  |  |  |  |
| 29 | > 10 | 0.55 | 189 | CCc1c(C(=O)NCCc2ccc(C)cc2)[nH]c2ccc(Cl)cc12 |  |  |  |  |  |
| 66.7 | 6.97 | > 10 | 132 | CCc1c(C(=O)NCCc2ccc(N3CCN(C)CC3)cc2)[nH]c2ccc(Cl)cc12 |  |  |  |  |  |
| 55.2 | 8.97 | 0.81 | 244 | CCc1c(C(=O)NCCc2ccc(N3CCCCC3)cc2)[nH]c2ccccc12 |  |  |  |  |  |
| 52.7 | 8.26 |  |  | CCc1c(C(=O)OCCc2ccc(N3CCCCC3)cc2)[nH]c2ccc(Cl)cc12 |  | > 10 |  |  | 18 |
